The text below walks through data of article PMC11624193, “Coupling cellular drug-target engagement to downstream pharmacology with CeTEAM” (Nature Communications, 2024).

Changes are numbered by the printed parent chain.

Experiment [1] concerns the target T1, NUDT15 (Homo sapiens, UniProt Q9NV35, R139C).
T1 construct: full-length R139C
T1 sequence (Q9NV35 1-164 R139C): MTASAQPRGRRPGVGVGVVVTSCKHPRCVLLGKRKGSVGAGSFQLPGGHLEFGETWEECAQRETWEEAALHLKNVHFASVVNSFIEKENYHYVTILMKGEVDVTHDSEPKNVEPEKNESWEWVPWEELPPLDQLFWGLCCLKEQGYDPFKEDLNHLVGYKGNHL
Briefly: DSF thermal shift of purified protein with […] compound; HA-R139C stabilization in cells. It is filed as binding. As to conditions: read-out: DSF thermal shift of purified protein with 50 μM compound; HA-R139C stabilizatio.

In experiment [2] the target is T2, NUDT15 (Homo sapiens, UniProt Q9NV35).
T2 construct: full-length wild-type
T2 sequence (Q9NV35 1-164): T1 sequence (Q9NV35 1-164 R139C) with C139R
Briefly: […] Å co-crystal structure; also enzyme-coupled malachite green inhibition assay and DSF. The format is biochemical.

The target in experiment [3] is T2, NUDT15. Description: enzyme-coupled malachite green assay with dGTP as substrate. It is filed as biochemical.

As to `Nc1nc(S)c2ncn(C3CCCCC3)c2n1` [NSC56456, 2-amino-9-cyclohexyl-3H-purine-6-thione], the ΔTm at 50 µM on NUDT15 [1] amounted to 7 °C. On NUDT15 [2], this molecule registered an IC50 of 383 nM. In the case of `CC(C)(c1ccccc1)n1cnc2c(=S)nc(N)[nH]c21` [TH8234, 2-amino-9-(2-phenylpropan-2-yl)-3H-purine-6(9H)-thione], the IC50 against NUDT15 [3] was determined as 375 nM.

The term IC50 denotes the midpoint of a concentration-inhibition curve.
